{
  "source": "paper PMC5519620",
  "about": "(Frontiers in Cellular Neuroscience, 2017)",
  "key": {"[1]": {"tested_on": "rat GABAB receptor (GABAB1/GABAB2)", "format": "binding"}, "[2]": {"tested_on": "rat GABAB receptor (GABAB1a/GABAB2)", "format": "cell-based"}, "human α9α10 nAChR": {"tested_on": "human α9α10 nAChR", "settings": "cited from earlier work"}, "[3]": {"tested_on": "N-type calcium channels in dorsal root ganglion neurons", "settings": "cited from earlier work"}, "neuropathic pain models": {"tested_on": "neuropathic pain models", "settings": "in vivo; cited from earlier work"}, "GABAB receptor [4]": {"tested_on": "GABAB receptor", "settings": "cited from earlier work"}, "GABAB receptor [5]": {"tested_on": "GABAB receptor", "settings": "cited from earlier work", "remark": "listed apart in the source"}, "N-type calcium channels": {"tested_on": "N-type calcium channels", "settings": "cited from earlier work"}},
  "note": "Entries after “also recorded” stand apart in the source; their conditions may differ.",
  "data": [
    {"substance": "Vc1.1", "values": [
      {"measurement": "Displacement of CGP54626-Red", "setting": "[1]", "result": "No displacement; also recorded: None of these conotoxins prevented the binding of the competitive orthosteric antagonist CGP54626-Red"},
      {"measurement": "GABABR activation (BRET change)", "setting": "[2]", "result": "do not activate GABABRs expressed in HEK cells; also recorded: no effect; also recorded: neither Vc1.1 nor any of the examined conotoxins activated the GABABR"},
      {"measurement": "Potency human vs. rat α9α10 nAChR", "setting": "human α9α10 nAChR", "result": "much less potent at the human vs. rat α9α10 nAChR"},
      {"measurement": "Block of N-type calcium channels", "setting": "[3]", "result": "blocks N-type calcium channels in dorsal root ganglion; also recorded: block N-type calcium channels in DRG neurons"},
      {"measurement": "Effect of G-protein signalling inhibition on N-type channel block", "setting": "[3]", "result": "block of N-type calcium channels was eliminated by pertussis toxin, intracellular GDPβS, or an inhibitor of pp60c-src tyrosine kinase"},
      {"measurement": "Analgesic effect", "setting": "neuropathic pain models", "result": "analgesic activity in several models of neuropathic pain"},
      {"measurement": "Competition with [3H]CGP54626", "setting": "GABAB receptor [4]", "result": "did not compete for binding with [3H]CGP54626"},
      {"measurement": "Competition with CGP54626", "setting": "GABAB receptor [5]", "result": "did not compete for binding"},
      {"measurement": "N-type calcium channel block in α9 KO neurons", "setting": "N-type calcium channels", "result": "block N-type calcium channels in cultured neurons from α9 KO mice"}
    ]}
  ]
}
